{"source": "patent US20180125856A1", "about": "“USE OF GLUCOCORTICOID RECEPTOR ANTAGONIST AND SOMATOSTATIN ANALOGUES TO TREAT ACTH-SECRETING TUMORS” (Corcept Therapeutics, Inc., priority 2015, published 2018)", "system": "human patient with an ectopic ACTH-secreting pancreatic neuroendocrine tumor", "assay": "Tolerability in a patient", "format": "in vivo", "conditions": "week 20, octreotide LAR continued", "text": "Mifepristone was resumed for an additional 12-month extension period. […] The collection of cortisol and ACTH data was less frequent during the extension study.", "data": [{"smiles": "CC#C[C@]1(O)CC[C@H]2[C@@H]3CCC4=CC(=O)CCC4=C3[C@@H](c3ccc(N(C)C)cc3)C[C@@]21C", "note": "[mifepristone, 17-β-hydrox-11-β-(4-dimethyl-aminophenyl)17-α-(1-propynyl)estra-4,9-dien-3-one]", "values": [{"measurement": "adverse events for which the drug was briefly stopped", "result": "significant fatigue, low appetite, and nausea"}]}]}
